Results as given in US7449582B2, “Compounds and compositions as protein kinase inhibitors” (IRM LLC, priority 2003, dated 2008).

Key:
wild type Bcr-abl = target: T1, wild type Bcr-abl (Homo sapiens, UniProt P00519); experiment: Proliferation of Ba/F3 cells expressing wild type Bcr-abl; assay type: cell-based
T1 construct: BCR (N-terminal fusion partner); expressed in transfected cells; host or cells: Ba/F3 (murine pro-B cells); the other entry of the earlier key: BCR (P11274, Breakpoint cluster region protein)
Method: (§1) 32D-p210 cells are plated into 96 well TC plates at a density of 15,000 cells per well. 50 μL of two fold serial dilutions of the test compound (Cmax is 40 μM) are added to each well (STI571 is included as a positive control). After incubating the cells for 48 hours at 37° C., 5% CO2, 15 μL of MTT (Promega) is added to each well and the cells are incubated for an additional 5 hours. The optical density at 570 nm is quantified spectrophotometrically and IC50 values, the concentration of compound required for 50% inhibition, determined from a dose response curve.
(§2) Compounds of the invention are tested for their antiproliferative effect on Ba/F3 cells expressing either wild type or the mutant forms of BCR-Abl (G250E, E255V, T315I, F317L, M351T) that confers resistance or diminished sensitivity to ST1571. The antiproliferative effect of these compounds on the mutant-BCR-Abl expressing cells and on the non transformed cells were tested at 10, 3.3, 1.1 and 0.37 μM as described above (in media lacking IL3). The IC50 values of the compounds lacking toxicity on the untransformed cells were determined from the dose response curves obtained as describe above.

Lck = target: T2, Lck (Homo sapiens, UniProt P06239); experiment: Upstate KinaseProfiler radio-enzymatic filter binding assay, Lck; assay type: biochemical; conditions: at a concentration of 10 μM; read-out: percentage inhibition
T2 construct: purchased Upstate
T2 sequence (P06239 whole entry): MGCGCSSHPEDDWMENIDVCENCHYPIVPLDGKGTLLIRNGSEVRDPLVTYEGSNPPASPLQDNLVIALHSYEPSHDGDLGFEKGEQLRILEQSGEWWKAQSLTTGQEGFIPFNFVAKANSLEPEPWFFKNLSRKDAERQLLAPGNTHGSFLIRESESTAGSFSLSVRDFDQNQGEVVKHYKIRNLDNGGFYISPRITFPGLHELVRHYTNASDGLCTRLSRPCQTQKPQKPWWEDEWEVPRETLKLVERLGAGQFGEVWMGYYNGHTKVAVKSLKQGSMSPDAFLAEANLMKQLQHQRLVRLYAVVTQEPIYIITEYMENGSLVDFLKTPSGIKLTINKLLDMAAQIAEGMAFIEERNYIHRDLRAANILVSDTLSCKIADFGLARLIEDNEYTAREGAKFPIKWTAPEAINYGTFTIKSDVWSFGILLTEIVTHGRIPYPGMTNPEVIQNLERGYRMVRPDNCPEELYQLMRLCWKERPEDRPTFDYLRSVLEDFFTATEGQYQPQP
Method: (§3) Compounds of the invention are assessed for their ability to inhibit individual members of a panel of kinases (a partial, non-limiting list of kinases includes: Abl, BCR-Abl, CSK, JNK1, JNK2, PDGF-R, p38, p70S6K, TGFβ, SRC, EGFR, c-Kit, trkB, FGFR3, Fes, Lck, Syk, RAF, MKK4, MKK6 and SAPK2μ). The compounds are tested in duplicates at a final concentration of 10 μM following this generic protocol. Note that the kinase buffer composition and the substrates vary for the different kinases included in the “Upstate KinaseProfiler™” panel. Kinase buffer (2.5 μL, 10×—containing MnCl2 when required), active kinase (0.001-0.01 Units; 2.5 μL), specific or Poly(Glu4-Tyr) peptide (5-500 μM or 0.01 mg/ml) in kinase buffer and […] are mixed in an eppendorf on ice. […] The assay squares are transferred to a scintillation vial, 5 ml scintillation cocktail are added and ^32P incorporation (cpm) to the peptide substrate is quantified with a Beckman scintillation counter. Percentage inhibition is calculated for each reaction.

MKK6 = target: T3, MKK6 (Homo sapiens, UniProt P52564); experiment: Upstate KinaseProfiler radio-enzymatic filter binding assay, MKK6; assay type: biochemical; conditions: at a concentration of 10 μM; read-out: percentage inhibition
T3 construct: purchased Upstate
Method: as §3

FGFR3 [1] = target: T4, FGFR3 (Homo sapiens, UniProt P22607); experiment: FGFR3 (Enzymatic Assay); assay type: biochemical; conditions: FGFR3 enzyme assay
T4 construct: purchased Upstate
T4 sequence (P22607 23-806): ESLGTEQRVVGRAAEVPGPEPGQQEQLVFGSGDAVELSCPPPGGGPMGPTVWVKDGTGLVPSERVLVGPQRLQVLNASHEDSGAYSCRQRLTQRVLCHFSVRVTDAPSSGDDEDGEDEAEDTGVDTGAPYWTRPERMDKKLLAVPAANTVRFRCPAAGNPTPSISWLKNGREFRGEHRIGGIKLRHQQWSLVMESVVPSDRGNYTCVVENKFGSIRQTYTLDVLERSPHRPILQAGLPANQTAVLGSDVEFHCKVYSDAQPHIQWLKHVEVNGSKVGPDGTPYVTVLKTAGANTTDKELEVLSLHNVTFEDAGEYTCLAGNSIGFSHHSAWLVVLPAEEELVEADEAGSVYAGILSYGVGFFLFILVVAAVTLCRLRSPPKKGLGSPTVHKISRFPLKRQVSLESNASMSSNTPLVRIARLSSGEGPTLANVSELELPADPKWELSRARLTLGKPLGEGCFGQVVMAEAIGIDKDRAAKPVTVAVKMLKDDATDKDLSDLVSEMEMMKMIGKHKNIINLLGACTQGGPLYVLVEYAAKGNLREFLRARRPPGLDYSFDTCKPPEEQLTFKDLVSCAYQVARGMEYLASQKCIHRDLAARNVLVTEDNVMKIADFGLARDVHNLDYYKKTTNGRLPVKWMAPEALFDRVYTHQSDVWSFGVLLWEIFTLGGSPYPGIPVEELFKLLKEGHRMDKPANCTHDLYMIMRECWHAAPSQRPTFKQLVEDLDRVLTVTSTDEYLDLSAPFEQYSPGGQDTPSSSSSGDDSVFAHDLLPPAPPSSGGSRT
Method: Kinase activity assay with purified FGFR3 (Upstate) is carried out in a final volume of 10 μL containing 0.25 μg/mL of enzyme in kinase buffer (30 mM Tris-HCl pH7.5, 15 mM MgCl2, 4.5 mM MnCl2, 15 μM Na3VO4 and 50 μg/mL BSA), and substrates (5 μg/mL biotin-poly-EY(Glu, Tyr) (CIS-US, Inc.) and 3 μM ATP). Two solutions are made: the first solution of 5 μl contains the FGFR3 enzyme in kinase buffer was first dispensed into 384-format ProxiPlate® (Perkin-Elmer) followed by adding 50 nL of compounds dissolved in DMSO, then 5 μl of second solution contains the substrate (poly-EY) and ATP in kinase buffer was added to each wells. The reactions are incubated at room temperature for one hour, stopped by adding 10 μL of HTRF detection mixture, which contains 30 mM Tris-HCl pH7.5, 0.5 M KF, 50 mM ETDA, 0.2 mg/mL BSA, 15 μg/mL streptavidin-XL665 (CIS-US, Inc.) and 150 ng/mL cryptate conjugated anti-phosphotyrosine antibody (CIS-US, Inc.). After one hour of room temperature incubation to allow for streptavidin-biotin interaction, time resolved florescent signals are read on Analyst GT (Molecular Devices Corp.). IC50 values are calculated by linear regression analysis of the percentage inhibition of each compound at 12 concentrations (1:3 dilution from 50 μM to 0.28 nM).

wild-type Abl = experiment: Upstate KinaseProfiler radio-enzymatic filter binding assay, Abl; assay type: biochemical; conditions: at a concentration of 10 μM
Method: as §3

G250E Bcr-abl = target: T5, G250E Bcr-abl (Homo sapiens, UniProt P00519, G250E); experiment: Proliferation of Ba/F3 cells expressing G250E mutant Bcr-abl; assay type: cell-based
T5 construct: BCR (N-terminal fusion partner); expressed in transfected cells; host or cells: Ba/F3 (murine pro-B cells); the other entry of the earlier key: BCR (P11274, Breakpoint cluster region protein)
Method: as §1, §2

M351T Bcr-abl = target: T6, M351T Bcr-abl (Homo sapiens, UniProt P00519, M351T); experiment: Proliferation of Ba/F3 cells expressing M351T mutant Bcr-abl; assay type: cell-based
T6 construct: BCR (N-terminal fusion partner); expressed in transfected cells; host or cells: Ba/F3 (murine pro-B cells); the other entry of the earlier key: BCR (P11274, Breakpoint cluster region protein)
Method: as §1, §2

E255V Bcr-abl = target: T7, E255V Bcr-abl (Homo sapiens, UniProt P00519, E255V); experiment: Proliferation of Ba/F3 cells expressing E255V mutant Bcr-abl; assay type: cell-based
T7 construct: BCR (N-terminal fusion partner); expressed in transfected cells; host or cells: Ba/F3 (murine pro-B cells); the other entry of the earlier key: BCR (P11274, Breakpoint cluster region protein)
Method: as §1, §2

p70S6K = target: T8, p70S6K (Homo sapiens, UniProt P23443); experiment: Upstate KinaseProfiler radio-enzymatic filter binding assay, p70S6K; assay type: biochemical; conditions: at a concentration of 10 μM; read-out: percentage inhibition
T8 construct: purchased Upstate
T8 sequence (P23443 whole entry): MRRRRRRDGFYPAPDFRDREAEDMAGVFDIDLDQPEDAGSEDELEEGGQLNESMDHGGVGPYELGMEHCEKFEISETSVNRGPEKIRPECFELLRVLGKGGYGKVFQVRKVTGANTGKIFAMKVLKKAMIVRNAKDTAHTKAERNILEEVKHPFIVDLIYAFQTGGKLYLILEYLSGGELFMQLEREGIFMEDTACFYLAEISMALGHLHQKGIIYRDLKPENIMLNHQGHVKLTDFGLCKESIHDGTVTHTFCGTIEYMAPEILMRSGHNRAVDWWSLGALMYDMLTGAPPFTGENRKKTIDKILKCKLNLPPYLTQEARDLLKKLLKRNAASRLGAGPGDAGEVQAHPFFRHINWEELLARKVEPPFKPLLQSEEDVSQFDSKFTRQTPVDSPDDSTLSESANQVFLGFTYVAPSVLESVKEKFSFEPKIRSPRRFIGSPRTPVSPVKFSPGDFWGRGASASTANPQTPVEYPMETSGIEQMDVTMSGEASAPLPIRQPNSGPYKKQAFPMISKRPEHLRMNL
Method: as §3

Bmx = target: T9, Bmx (Homo sapiens, UniProt P51813); experiment: Upstate KinaseProfiler radio-enzymatic filter binding assay, Bmx; assay type: biochemical; conditions: at a concentration of 10 μM; read-out: percentage inhibition
T9 construct: purchased Upstate
Method: as §3

SAPK2β = target: T10, SAPK2β (Homo sapiens, UniProt Q15759); experiment: Upstate KinaseProfiler radio-enzymatic filter binding assay, SAPK2β; assay type: biochemical; conditions: at a concentration of 10 μM; read-out: percentage inhibition
T10 construct: purchased Upstate
T10 sequence (Q15759 whole entry): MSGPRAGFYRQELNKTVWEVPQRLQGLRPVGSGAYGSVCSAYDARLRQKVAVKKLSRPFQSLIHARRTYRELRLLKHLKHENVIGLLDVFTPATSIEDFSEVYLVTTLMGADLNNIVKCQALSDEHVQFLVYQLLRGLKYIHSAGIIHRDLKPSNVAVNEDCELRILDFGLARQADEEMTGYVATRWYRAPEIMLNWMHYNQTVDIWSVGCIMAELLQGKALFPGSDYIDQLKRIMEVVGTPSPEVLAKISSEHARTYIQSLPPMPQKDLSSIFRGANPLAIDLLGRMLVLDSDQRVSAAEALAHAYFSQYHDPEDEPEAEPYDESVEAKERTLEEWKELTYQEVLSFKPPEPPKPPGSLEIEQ
Method: as §3

SAPK2α = target: T11, SAPK2α (Homo sapiens, UniProt Q16539); experiment: Upstate KinaseProfiler radio-enzymatic filter binding assay, SAPK2α; assay type: biochemical; conditions: at a concentration of 10 μM; read-out: percentage inhibition
T11 construct: purchased Upstate
T11 sequence (Q16539 whole entry): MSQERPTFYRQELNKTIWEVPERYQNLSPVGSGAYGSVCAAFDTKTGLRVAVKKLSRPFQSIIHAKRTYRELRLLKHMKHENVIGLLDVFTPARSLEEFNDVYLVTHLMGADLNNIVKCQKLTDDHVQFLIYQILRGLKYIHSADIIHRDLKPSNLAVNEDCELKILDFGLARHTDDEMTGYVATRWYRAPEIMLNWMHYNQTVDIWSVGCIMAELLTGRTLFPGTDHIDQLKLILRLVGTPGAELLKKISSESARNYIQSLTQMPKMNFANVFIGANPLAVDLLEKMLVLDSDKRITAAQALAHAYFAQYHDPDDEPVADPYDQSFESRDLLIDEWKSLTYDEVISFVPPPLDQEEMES
Method: as §3

CSK = target: T12, CSK (Homo sapiens, UniProt P41240); experiment: Upstate KinaseProfiler radio-enzymatic filter binding assay, CSK; assay type: biochemical; conditions: at a concentration of 10 μM; read-out: percentage inhibition
T12 construct: purchased Upstate
Method: as §3

JNK2 α2 = target: T13, JNK2 α2 (Homo sapiens, UniProt P45984); experiment: Upstate KinaseProfiler radio-enzymatic filter binding assay, JNK2α2; assay type: biochemical; conditions: at a concentration of 10 μM; read-out: percentage inhibition
T13 construct: purchased Upstate
Method: as §3

FGFR3 [2] = target: T4, FGFR3; experiment: Upstate KinaseProfiler radio-enzymatic filter binding assay, FGFR3; assay type: biochemical; conditions: at a concentration of 10 μM; read-out: percentage inhibition
Method: as §3

Ba/F3-TEL-FGFR3 cells = experiment: FGFR3 (Cellular Assay); assay type: cell-based
Method: Compounds of the invention are tested for their ability to inhibit transformed Ba/F3-TEL-FGFR3 cells proliferation, which is depended on FGFR3 cellular kinase activity. Ba/F3-TEL-FGFR3 are cultured up to 800,000 cells/mL in suspension, with RPMI 1640 supplemented with 10% fetal bovine serum as the culture medium. Cells are dispensed into 384-well format plate at 5000 cell/well in 50 μL culture medium. Compounds of the invention are dissolved and diluted in dimethylsufoxide (DMSO). Twelve points 1:3 serial dilutions are made into DMSO to create concentrations gradient ranging typically from 10 mM to 0.05 μM. Cells are added with 50 nL of diluted compounds and incubated for 48 hours in cell culture incubator. AlamarBlue® (TREK Diagnostic Systems), which can be used to monitor the reducing environment created by proliferating cells, are added to cells at final concentration of 10%. After additional four hours of incubation in a 37° C. cell culture incubator, fluorescence signals from reduced AlamarBlue® (Excitation at 530 nm, Emission at 580 nm) are quantified on Analyst GT (Molecular Devices Corp.). IC50 values are calculated by linear regression analysis of the percentage inhibition of each compound at 12 concentrations.

c-Raf [3] = target: c-Raf (Homo sapiens, UniProt P04049); experiment: c-Raf enzyme assay; assay type: biochemical
c-Raf (Homo sapiens, UniProt P04049), sequence (P04049 whole entry, species assumed): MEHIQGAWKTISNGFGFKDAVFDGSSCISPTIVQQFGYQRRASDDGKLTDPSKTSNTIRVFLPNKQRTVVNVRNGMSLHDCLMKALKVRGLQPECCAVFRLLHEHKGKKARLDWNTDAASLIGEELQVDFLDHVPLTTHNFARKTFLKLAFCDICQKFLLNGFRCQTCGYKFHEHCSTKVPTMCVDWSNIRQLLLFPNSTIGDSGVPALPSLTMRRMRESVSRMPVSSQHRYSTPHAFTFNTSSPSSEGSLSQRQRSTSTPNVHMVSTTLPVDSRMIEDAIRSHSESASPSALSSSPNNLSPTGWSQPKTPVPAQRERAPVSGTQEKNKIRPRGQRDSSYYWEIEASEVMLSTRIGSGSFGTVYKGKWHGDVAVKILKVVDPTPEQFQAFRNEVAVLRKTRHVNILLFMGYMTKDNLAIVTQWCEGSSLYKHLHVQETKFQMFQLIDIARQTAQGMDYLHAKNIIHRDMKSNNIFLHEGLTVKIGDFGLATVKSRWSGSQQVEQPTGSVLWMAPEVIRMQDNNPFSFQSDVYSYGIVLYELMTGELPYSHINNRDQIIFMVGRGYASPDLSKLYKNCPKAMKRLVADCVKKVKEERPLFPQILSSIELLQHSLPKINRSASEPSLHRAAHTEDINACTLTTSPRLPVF

c-Raf [4] = target: T14, c-Raf (Homo sapiens, UniProt P04049, Y340D/Y341D); experiment: Upstate KinaseProfiler radio-enzymatic filter binding assay, c-RAF; assay type: biochemical; conditions: at a concentration of 10 μM; read-out: percentage inhibition
T14 construct: purchased Upstate
T14 sequence (P04049 306-648 Y340D/Y341D limits assumed): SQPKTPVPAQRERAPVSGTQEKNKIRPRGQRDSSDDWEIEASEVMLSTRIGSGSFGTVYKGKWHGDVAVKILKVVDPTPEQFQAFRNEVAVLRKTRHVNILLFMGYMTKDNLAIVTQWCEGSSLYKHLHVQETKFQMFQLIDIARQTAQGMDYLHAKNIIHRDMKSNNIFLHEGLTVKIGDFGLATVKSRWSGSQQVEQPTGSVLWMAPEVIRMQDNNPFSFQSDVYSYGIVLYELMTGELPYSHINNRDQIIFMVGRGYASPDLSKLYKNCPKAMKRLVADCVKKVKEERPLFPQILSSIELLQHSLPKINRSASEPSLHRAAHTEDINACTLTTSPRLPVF
Method: as §3

TrkB = target: T15, TrkB (Homo sapiens, UniProt Q16620); experiment: Upstate KinaseProfiler radio-enzymatic filter binding assay, TrkB; assay type: biochemical; conditions: at a concentration of 10 μM; read-out: percentage inhibition
T15 construct: purchased Upstate
Method: as §3

b-Raf = b-Raf (Homo sapiens, UniProt P15056); experiment: b-Raf enzyme assay; assay type: biochemical
b-Raf, sequence (P15056 whole entry): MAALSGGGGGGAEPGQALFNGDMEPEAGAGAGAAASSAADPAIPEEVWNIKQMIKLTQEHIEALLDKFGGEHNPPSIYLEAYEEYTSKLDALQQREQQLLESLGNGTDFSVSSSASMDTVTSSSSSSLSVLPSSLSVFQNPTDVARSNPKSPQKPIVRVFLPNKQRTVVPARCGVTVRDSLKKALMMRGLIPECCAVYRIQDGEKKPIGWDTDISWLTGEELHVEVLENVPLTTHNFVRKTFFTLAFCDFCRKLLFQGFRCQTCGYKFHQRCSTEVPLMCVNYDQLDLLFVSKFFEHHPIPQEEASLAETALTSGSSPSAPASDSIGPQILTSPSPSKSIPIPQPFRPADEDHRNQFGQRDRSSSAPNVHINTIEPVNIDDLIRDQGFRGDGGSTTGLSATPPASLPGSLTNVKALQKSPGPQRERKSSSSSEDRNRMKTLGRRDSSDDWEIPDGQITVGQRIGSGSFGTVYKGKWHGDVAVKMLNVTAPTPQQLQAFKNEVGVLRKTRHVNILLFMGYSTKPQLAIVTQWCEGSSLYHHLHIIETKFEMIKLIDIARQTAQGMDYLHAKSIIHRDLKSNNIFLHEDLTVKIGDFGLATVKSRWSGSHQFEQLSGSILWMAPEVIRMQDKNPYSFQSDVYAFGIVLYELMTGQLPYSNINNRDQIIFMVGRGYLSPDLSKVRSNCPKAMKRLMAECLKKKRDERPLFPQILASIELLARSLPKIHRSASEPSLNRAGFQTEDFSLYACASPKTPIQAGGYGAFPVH
Method: Compounds of the invention are tested for their ability to inhibit the activity of b-Raf. The assay is carried out in 384-well MaxiSorp plates (NUNC) with black walls and clear bottom. The substrate, IκBα is diluted in DPBS (1:750) and 15 μl is added to each well. The plates are incubated at 4° C. overnight and washed 3 times with TBST (25 mM Tris, pH 8.0, 150 mM NaCl and 0.05% Tween-20) using the EMBLA plate washer. Plates are blocked by Superblock (15 μl/well) for 3 hours at room temperature, washed 3 times with TBST and pat-dried. Assay buffer containing 20 μM ATP (10 μl) is added to each well followed by 100 nl or 500 nl of compound. B-Raf is diluted in the assay buffer (1 μl into 25 μl) and 10 μl of diluted b-Raf is added to each well (0.4 μg/well). The plates are incubated at room temperature for 2.5 hours. The kinase reaction is stopped by washing the plates 6 times with TBST. Phosph-IκBα (Ser32/36) antibody is diluted in Superblock (1:10,000) and 15 μl is added to each well. The plates are incubated at 4° C. overnight and washed 6 times with TBST. AP-conjugated goat-anti-mouse IgG is diluted in Superblock (1:1,500) and 15 μl is added to each well. Plates are incubated at room temperature for 1 hour and washed 6 times with TBST. […] Plates are read on Acquest or Analyst GT using a Fluorescence Intensity Nanxin BBT anion (505 dichroic mirror).

MKK4 = target: T16, MKK4 (Mus musculus, UniProt P47809); experiment: Upstate KinaseProfiler radio-enzymatic filter binding assay, MKK4; assay type: biochemical; conditions: at a concentration of 10 μM; read-out: percentage inhibition
T16 construct: purchased Upstate
T16 sequence (P47809 2-397 limits assumed): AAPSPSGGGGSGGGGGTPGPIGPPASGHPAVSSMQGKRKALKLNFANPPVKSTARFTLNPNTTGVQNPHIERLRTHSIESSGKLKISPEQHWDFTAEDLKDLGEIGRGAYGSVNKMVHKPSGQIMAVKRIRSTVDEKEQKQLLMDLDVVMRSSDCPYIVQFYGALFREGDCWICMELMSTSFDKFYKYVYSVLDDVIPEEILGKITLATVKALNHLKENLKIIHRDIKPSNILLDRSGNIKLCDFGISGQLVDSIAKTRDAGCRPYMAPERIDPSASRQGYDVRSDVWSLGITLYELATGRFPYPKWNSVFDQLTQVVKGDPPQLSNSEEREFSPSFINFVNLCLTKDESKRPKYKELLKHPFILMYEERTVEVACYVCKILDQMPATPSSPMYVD
Method: as §3

F317L Bcr-abl = target: T17, F317L Bcr-abl (Homo sapiens, UniProt P00519, F317L); experiment: Proliferation of Ba/F3 cells expressing F317L mutant Bcr-abl; assay type: cell-based
T17 construct: BCR (N-terminal fusion partner); expressed in transfected cells; host or cells: Ba/F3 (murine pro-B cells); the other entry of the earlier key: BCR (P11274, Breakpoint cluster region protein)
Method: as §1, §2

T315I Bcr-abl = target: T18, T315I Bcr-abl (Homo sapiens, UniProt P00519, T315I); experiment: Proliferation of Ba/F3 cells expressing T315I mutant Bcr-abl; assay type: cell-based
T18 construct: BCR (N-terminal fusion partner); expressed in transfected cells; host or cells: Ba/F3 (murine pro-B cells); the other entry of the earlier key: BCR (P11274, Breakpoint cluster region protein)
Method: as §1, §2

JNK1α1 = target: T19, JNK1α1 (Homo sapiens, UniProt P45983); experiment: Upstate KinaseProfiler radio-enzymatic filter binding assay, JNK1α1; assay type: biochemical; conditions: at a concentration of 10 μM; read-out: percentage inhibition
T19 construct: purchased Upstate
Method: as §3

COc1ccc(Nc2cc3c(cn2)cc(-c2cc(NC(=O)c4cccc(C(F)(F)F)c4)ccc2C)c(=O)n3C)cn1 [Example 8, N-{3-[7-(6-Methoxy-pyridin-3-ylamino)-1-methyl-2-oxo-1,2-dihydro-[1,6]naphthyridin-3-yl]-4-methyl-phenyl}-3-trifluoromethyl-benzamide]
IC50 (wild type Bcr-abl): < 0.5 nM
inhibition at 10 µM (Lck): 99%
inhibition at 10 µM (MKK6): 97%
IC50 (FGFR3 [1]): 107 nM
percentage inhibition (wild-type Abl): 100%
IC50 (G250E Bcr-abl): 43 nM
IC50 (M351T Bcr-abl): 9 nM
IC50 (E255V Bcr-abl): 48 nM
inhibition at 10 µM (p70S6K): 86%
inhibition at 10 µM (Bmx): 100%
inhibition at 10 µM (SAPK2β): 98%
inhibition at 10 µM (SAPK2α): 95%
inhibition at 10 µM (CSK): 100%
inhibition at 10 µM (JNK2 α2): 99%
inhibition at 10 µM (FGFR3 [2]): 96%
IC50 (Ba/F3-TEL-FGFR3 cells): 3 nM
IC50 (c-Raf [3]): 17 nM
inhibition at 10 µM (c-Raf [4]): 90%
inhibition at 10 µM (TrkB): 97%
IC50 (b-Raf): 500 nM
inhibition at 10 µM (MKK4): 91%
IC50 (F317L Bcr-abl): < 0.5 nM
IC50 (T315I Bcr-abl): 122 nM
inhibition at 10 µM (JNK1α1): 89%
